Reference: publication PMC10066365, “Nemacol is a small molecule inhibitor of C. elegans vesicular acetylcholine transporter with anthelmintic potential” (Nature Communications, 2023)
Where “and” joins values, the source holds several entries; their conditions need not be identical. Equal values may be shown once.

Legend:
Pristionchus pacificus = Pristionchus pacificus motor disruption dose-response on solid media, 1 h; details: for mean % any phene (coiled, jerky-Unc or paralyzed): Pristionchus pacificus young adults; for mean % any phene (coiled, jerky-Unc or paralyzed) / mean % any phene: mean of three biological replicates; for EC50: Pristionchus pacificus, 1 h, read-out: P. pacificus motor disruption EC50; for mean % any phene: any phenotype (coiled, jerky-Unc or paralyzed) at one hour; for rep 1 atypical locomotion / rep 1 coiled / rep 1 no phene / rep 1 paralyzed / rep 2 atypical locomotion / rep 2 coiled / rep 2 no phene / rep 2 paralyzed / rep 3 atypical locomotion / rep 3 coiled / rep 3 no phene / rep 3 paralyzed: count of 20 animals per trial, one hour
[1] = system: Dirofilaria immitis microfilariae; assay: Dirofilaria immitis microfilariae immobility assay (DiroImager, 72 h); details: Dirofilaria immitis microfilariae
Summary of the method: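 About 250 freshly purified microfilariae of the Missouri isolate per well in supplemented RPMI 1640, exposed to compound for 72 h. Motility scored by automated whole-plate optical imaging; medium with 1% DMSO as negative control.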

C. elegans = C. elegans motor phenotype scoring on solid media (Punc/jerky-unc, coiled, paralyzed), wild-type young adults; assay type: in vivo, Caenorhabditis elegans; details: for atypical locomotion (number of animals) / coiled (number of animals) / no phene (number of animals) / paralyzed (number of animals) / any phene: mean % fraction of young adults exhibiting any phenotype (coiled, jerky-Unc or paralyzed): one hour; for atypical locomotion (number of animals) / coiled (number of animals) / no phene (number of animals) / paralyzed (number of animals): young adults, 20 animals per trial, single technical replicate; for any phene: mean % fraction of young adults exhibiting any phenotype (coiled, jerky-Unc or paralyzed): mean of three biological replicates; for EC50: Caenorhabditis elegans, any motor phenotype after 1 h on solid media, ± 95% CI, read-out: C. elegans - motor disruption EC50
[2] = system: Dirofilaria immitis L3/L4; assay: Dirofilaria immitis L3/L4 motility assay (DiroImager, 72 h); details: Dirofilaria immitis L4
[3] = conc 3.75, observed at one hour

FC(F)(F)c1cccc(N2CCN(C3CCCCCC3)CC2)c1 [Nemacol-52]
mean % any phene (coiled, jerky-Unc or paralyzed) (Pristionchus pacificus; [3]): 5%
mean % any phene (coiled, jerky-Unc or paralyzed) (Pristionchus pacificus; conc 15, observed at one hour): 21.6667%
mean % any phene (coiled, jerky-Unc or paralyzed) (Pristionchus pacificus; conc 60, observed at one hour): 97.5%
EC50 (Pristionchus pacificus): 21.7 ± 3.7 µM
% effect (motility), DIROIM MF ([1]; 0.016 µM): 0%
% effect (motility), DIROIM MF ([1]; 0.08 µM): 0%
% effect (motility), DIROIM MF ([1]; 0.4 µM): 0%
% effect (motility), DIROIM MF ([1]; 2 µM): 0%
% effect (motility), DIROIM MF ([1]; 10 µM): 0%
atypical locomotion (number of animals) (C. elegans; 3.75uM): 14 and 12 and 10 and 8 and 15
coiled (number of animals) (C. elegans; 3.75uM): 0
no phene (number of animals) (C. elegans; 3.75uM): 4 and 6 and 10 and 12 and 5
paralyzed (number of animals) (C. elegans; 3.75uM): 2 and 0
any phene: mean % fraction of young adults exhibiting any phenotype (coiled, jerky-Unc or paralyzed) (C. elegans; 3.75uM): 64.1667%
atypical locomotion (number of animals) (C. elegans; 15uM): 12 and 7 and 8 and 10 and 13 and 9
coiled (number of animals) (C. elegans; 15uM): 0 and 7 and 4 and 5
no phene (number of animals) (C. elegans; 15uM): 0
paralyzed (number of animals) (C. elegans; 15uM): 8 and 13 and 5 and 6 and 2 and 7
any phene: mean % fraction of young adults exhibiting any phenotype (coiled, jerky-Unc or paralyzed) (C. elegans; 15uM): 100%
atypical locomotion (number of animals) (C. elegans; 60uM): 12 and 8 and 7 and 6 and 13
coiled (number of animals) (C. elegans; 60uM): 0 and 1
no phene (number of animals) (C. elegans; 60uM): 0
paralyzed (number of animals) (C. elegans; 60uM): 8 and 12 and 13 and 7
any phene: mean % fraction of young adults exhibiting any phenotype (coiled, jerky-Unc or paralyzed) (C. elegans; 60uM): 100%
EC50 (C. elegans): 3.6 µM
% effect (motility), DIROIM L4 ([2]; 2 µM): 0%
% effect (motility), DIROIM L4 ([2]; 10 µM): 0%
% effect (motility), DIROIM L4 ([2]; 50 µM): 15%

c1ccc(N2CCN(C3CCCCCCC3)CC2)cc1 [Nemacol-54]
EC50 (Pristionchus pacificus): 52.4 µM
mean % any phene (Pristionchus pacificus; conc 3.75): 0%
rep 1 atypical locomotion (Pristionchus pacificus; conc 3.75): 0
rep 1 coiled (Pristionchus pacificus; conc 3.75): 0
rep 1 no phene (Pristionchus pacificus; conc 3.75): 20
rep 1 paralyzed (Pristionchus pacificus; conc 3.75): 0
rep 2 atypical locomotion (Pristionchus pacificus; conc 3.75): 0
rep 2 coiled (Pristionchus pacificus; conc 3.75): 0
rep 2 no phene (Pristionchus pacificus; conc 3.75): 20
rep 2 paralyzed (Pristionchus pacificus; conc 3.75): 0
rep 3 atypical locomotion (Pristionchus pacificus; conc 3.75): 0
rep 3 coiled (Pristionchus pacificus; conc 3.75): 0
rep 3 no phene (Pristionchus pacificus; conc 3.75): 20
rep 3 paralyzed (Pristionchus pacificus; conc 3.75): 0
mean % any phene (Pristionchus pacificus; conc 15): 0%
rep 1 atypical locomotion (Pristionchus pacificus; conc 15): 0
rep 1 coiled (Pristionchus pacificus; conc 15): 0
rep 1 no phene (Pristionchus pacificus; conc 15): 20
rep 1 paralyzed (Pristionchus pacificus; conc 15): 0
rep 2 atypical locomotion (Pristionchus pacificus; conc 15): 0
rep 2 coiled (Pristionchus pacificus; conc 15): 0
rep 2 no phene (Pristionchus pacificus; conc 15): 20
rep 2 paralyzed (Pristionchus pacificus; conc 15): 0
rep 3 atypical locomotion (Pristionchus pacificus; conc 15): 0
rep 3 coiled (Pristionchus pacificus; conc 15): 0
rep 3 no phene (Pristionchus pacificus; conc 15): 20
rep 3 paralyzed (Pristionchus pacificus; conc 15): 0
mean % any phene (Pristionchus pacificus; conc 60): 92.5%
rep 1 atypical locomotion (Pristionchus pacificus; conc 60): 6 and 10
rep 1 coiled (Pristionchus pacificus; conc 60): 5 and 4
rep 1 no phene (Pristionchus pacificus; conc 60): 5 and 4
rep 1 paralyzed (Pristionchus pacificus; conc 60): 4 and 2
rep 2 atypical locomotion (Pristionchus pacificus; conc 60): 12 and 10
rep 2 coiled (Pristionchus pacificus; conc 60): 5 and 7
rep 2 no phene (Pristionchus pacificus; conc 60): 0
rep 2 paralyzed (Pristionchus pacificus; conc 60): 3
rep 3 atypical locomotion (Pristionchus pacificus; conc 60): 9 and 10
rep 3 coiled (Pristionchus pacificus; conc 60): 8 and 7
rep 3 no phene (Pristionchus pacificus; conc 60): 0
rep 3 paralyzed (Pristionchus pacificus; conc 60): 3
% effect (motility), DIROIM MF ([1]; 0.016 µM): 0%
% effect (motility), DIROIM MF ([1]; 0.08 µM): 0%
% effect (motility), DIROIM MF ([1]; 0.4 µM): 0%
% effect (motility), DIROIM MF ([1]; 2 µM): 0%
% effect (motility), DIROIM MF ([1]; 10 µM): 0%
atypical locomotion (number of animals) (C. elegans; 3.75uM): 7 and 14 and 6 and 3 and 12 and 10
coiled (number of animals) (C. elegans; 3.75uM): 0
no phene (number of animals) (C. elegans; 3.75uM): 11 and 4 and 14 and 17 and 8 and 10
paralyzed (number of animals) (C. elegans; 3.75uM): 2 and 0
any phene: mean % fraction of young adults exhibiting any phenotype (coiled, jerky-Unc or paralyzed) (C. elegans; 3.75uM): 46.6667%
atypical locomotion (number of animals) (C. elegans; 15uM): 8 and 13 and 15 and 18 and 17
coiled (number of animals) (C. elegans; 15uM): 2 and 1 and 0
no phene (number of animals) (C. elegans; 15uM): 0 and 5 and 3
paralyzed (number of animals) (C. elegans; 15uM): 10 and 6 and 0 and 1
any phene: mean % fraction of young adults exhibiting any phenotype (coiled, jerky-Unc or paralyzed) (C. elegans; 15uM): 93.3333%
atypical locomotion (number of animals) (C. elegans; 60uM): 2 and 4 and 6 and 5 and 3
coiled (number of animals) (C. elegans; 60uM): 8 and 7 and 5 and 4 and 9
no phene (number of animals) (C. elegans; 60uM): 0
paralyzed (number of animals) (C. elegans; 60uM): 10 and 9 and 8 and 11
EC50 (C. elegans): 4 ± 1.1 µM
% effect (motility), DIROIM L4 ([2]; 10 µM): 0%
% effect (motility), DIROIM L4 ([2]; 50 µM): 25%

FC(F)(F)c1cccc(N2CCN(C3CCCCCCC3)CC2)c1 [Nemacol-55]
mean % any phene (coiled, jerky-Unc or paralyzed) (Pristionchus pacificus; [3]): 5%
mean % any phene (coiled, jerky-Unc or paralyzed) (Pristionchus pacificus; conc 15, observed at one hour): 8.333%
mean % any phene (coiled, jerky-Unc or paralyzed) (Pristionchus pacificus; conc 60, observed at one hour): 59.1667%
EC50 (Pristionchus pacificus): 49.2 ± 6.2 µM
% effect (motility), DIROIM MF ([1]; 0.016 µM): 0%
% effect (motility), DIROIM MF ([1]; 0.08 µM): 0%
% effect (motility), DIROIM MF ([1]; 0.4 µM): 0%
% effect (motility), DIROIM MF ([1]; 2 µM): 0%
% effect (motility), DIROIM MF ([1]; 10 µM): 0%
atypical locomotion (number of animals) (C. elegans; 3.75uM): 5 and 6 and 2 and 3 and 8
coiled (number of animals) (C. elegans; 3.75uM): 0
no phene (number of animals) (C. elegans; 3.75uM): 15 and 14 and 18 and 17 and 12
paralyzed (number of animals) (C. elegans; 3.75uM): 0
any phene: mean % fraction of young adults exhibiting any phenotype (coiled, jerky-Unc or paralyzed) (C. elegans; 3.75uM): 26.6667%
atypical locomotion (number of animals) (C. elegans; 15uM): 11 and 15 and 8 and 9 and 19 and 18
coiled (number of animals) (C. elegans; 15uM): 1 and 0 and 2
no phene (number of animals) (C. elegans; 15uM): 8 and 4 and 12 and 11 and 1 and 0
paralyzed (number of animals) (C. elegans; 15uM): 0 and 1
any phene: mean % fraction of young adults exhibiting any phenotype (coiled, jerky-Unc or paralyzed) (C. elegans; 15uM): 70%
atypical locomotion (number of animals) (C. elegans; 60uM): 18 and 17 and 16 and 11 and 15
coiled (number of animals) (C. elegans; 60uM): 0 and 2 and 5 and 4 and 3
no phene (number of animals) (C. elegans; 60uM): 0 and 2
paralyzed (number of animals) (C. elegans; 60uM): 2 and 1 and 0 and 4
any phene: mean % fraction of young adults exhibiting any phenotype (coiled, jerky-Unc or paralyzed) (C. elegans; 60uM): 96.6667%
EC50 (C. elegans): 7.9 ± 3.5 µM
% effect (motility), DIROIM L4 ([2]; 10 µM): 15%
% effect (motility), DIROIM L4 ([2]; 50 µM): 35%
